The values that follow come from patent publication US10316049B2, “Tank-binding kinase inhibitor compounds” (Gilead Sciences, Inc., priority 2015, dated 2019).

For one assay, the target named is T1, TBK1 (Homo sapiens, UniProt Q9UHD2).
T1 construct: TBK1 and IKKε were expressed and purified as full length recombinant proteins; made in house
T1 sequence (Q9UHD2 1-729): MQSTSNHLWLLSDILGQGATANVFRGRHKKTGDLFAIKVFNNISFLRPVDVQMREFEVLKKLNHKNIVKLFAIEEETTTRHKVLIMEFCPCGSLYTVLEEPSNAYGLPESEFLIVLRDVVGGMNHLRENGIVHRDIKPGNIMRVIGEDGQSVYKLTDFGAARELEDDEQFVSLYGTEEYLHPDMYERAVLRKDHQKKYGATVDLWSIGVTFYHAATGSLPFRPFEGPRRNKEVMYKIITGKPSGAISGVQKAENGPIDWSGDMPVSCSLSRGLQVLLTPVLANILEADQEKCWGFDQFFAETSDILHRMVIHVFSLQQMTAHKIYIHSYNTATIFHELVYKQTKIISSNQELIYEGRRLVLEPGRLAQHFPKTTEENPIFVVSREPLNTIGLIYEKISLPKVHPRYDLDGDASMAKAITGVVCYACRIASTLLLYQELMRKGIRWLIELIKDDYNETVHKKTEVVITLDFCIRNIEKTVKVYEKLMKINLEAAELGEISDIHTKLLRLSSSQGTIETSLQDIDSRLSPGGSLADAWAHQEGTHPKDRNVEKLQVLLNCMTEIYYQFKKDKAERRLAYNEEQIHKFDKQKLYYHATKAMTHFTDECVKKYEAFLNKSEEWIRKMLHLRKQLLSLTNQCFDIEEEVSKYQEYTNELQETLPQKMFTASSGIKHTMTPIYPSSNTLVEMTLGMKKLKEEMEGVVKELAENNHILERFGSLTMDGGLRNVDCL
As to the kind of experiment: TR-FRET enzymatic activity assay, TBK1. Also: full length recombinant TBK1 at 2.5 nM. In kind it is biochemical. As to the method: (§1) Biological Assay for TBK1 and IKKε:
Enzymatic activity of IKKε and TBK1 was measured using a homogeneous time resolved fluorescence resonance energy transfer (TR-FRET) assay that monitors enzyme dependent phosphorylation of a biotinylated serine/threonine peptide substrate. An increase in the amount of phosphorylated peptide results in an increase in TR-FRET signal. TBK1 and IKKε were expressed and purified as full length recombinant proteins. Detection reagents for the assay were purchased from Cisbio. […] After an assay reaction time of 240 minutes at 25° C., reactions were terminated with EDTA.
Amount of phosphorylated peptide was determined by the addition of 125 nM streptavidin XL665 and europium cryptate labeled anti-phospho monoclonal antibody and the resulting TR-FRET signal was recorded on an Envision plate reader (Ex: 340 nm; Em: 615/665 nm; 100 μs delay and 200 μs read window). Data was normalized based on a positive (1 μM Staurosporine) and negative (DMSO) controls and IC50 values calculated from the fit of the dose-response curves to a four-parameter equation. All IC50 values represent geometric mean values of a minimum of four determinations. These assays generally produced results within 3-fold of the reported mean.

The next assay deals with T2, IKKε (Homo sapiens, UniProt Q14164).
T2 construct: TBK1 and IKKε were expressed and purified as full length recombinant proteins; made in house
T2 sequence (Q14164 1-716): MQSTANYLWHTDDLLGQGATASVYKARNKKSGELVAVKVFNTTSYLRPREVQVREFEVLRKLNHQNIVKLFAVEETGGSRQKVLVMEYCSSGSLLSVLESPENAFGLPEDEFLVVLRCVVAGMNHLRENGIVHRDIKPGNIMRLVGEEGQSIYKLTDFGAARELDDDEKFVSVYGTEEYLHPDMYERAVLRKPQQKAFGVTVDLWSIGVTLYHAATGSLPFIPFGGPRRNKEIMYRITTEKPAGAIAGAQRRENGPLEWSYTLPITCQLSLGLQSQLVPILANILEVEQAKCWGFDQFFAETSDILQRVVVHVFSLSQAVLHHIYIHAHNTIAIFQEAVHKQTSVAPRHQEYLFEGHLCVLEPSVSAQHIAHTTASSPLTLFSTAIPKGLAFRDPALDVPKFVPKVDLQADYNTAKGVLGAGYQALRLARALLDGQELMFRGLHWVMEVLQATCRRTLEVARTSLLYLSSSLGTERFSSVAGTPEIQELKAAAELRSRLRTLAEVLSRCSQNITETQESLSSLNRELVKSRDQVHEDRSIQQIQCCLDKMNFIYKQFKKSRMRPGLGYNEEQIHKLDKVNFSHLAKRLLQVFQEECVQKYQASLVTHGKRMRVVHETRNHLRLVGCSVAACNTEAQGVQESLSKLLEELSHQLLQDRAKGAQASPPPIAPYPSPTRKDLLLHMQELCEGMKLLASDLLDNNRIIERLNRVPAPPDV
The experiment in a line: TR-FRET enzymatic activity assay, IKKε. Also: full length recombinant IKKε at 0.3 nM. In kind it is biochemical. Particulars: read-out: IKKϵ IC50. How it is done:
as §1
Enzymatic activity of IKKε and TBK1 was measured using a homogeneous time resolved fluorescence resonance energy transfer (TR-FRET) assay that monitors enzyme dependent phosphorylation of a biotinylated serine/threonine peptide substrate. […] TBK1 and IKKε were expressed and purified as full length recombinant proteins. Detection reagents for the assay were purchased from Cisbio. […] After an assay reaction time of 240 minutes at 25° C., reactions were terminated with EDTA.
Amount of phosphorylated peptide was determined by the addition of 125 nM streptavidin XL665 and europium cryptate labeled anti-phospho monoclonal antibody and the resulting TR-FRET signal was recorded on an Envision plate reader (Ex: 340 nm; Em: 615/665 nm; 100 μs delay and 200 μs read window). Data was normalized based on a positive (1 μM Staurosporine) and negative (DMSO) controls and IC50 values calculated from the fit of the dose-response curves to a four-parameter equation. All IC50 values represent geometric mean values of a minimum of four determinations.
(In general: Time-resolved FRET reads energy transfer from a long-lived donor to a nearby acceptor.)

As usually defined, the IC50 is the point on the concentration scale where inhibition reaches its midpoint. Consider `C[n+]1ccccc1N1CC[C@H](Oc2ccc(-c3cc(NC(=O)C4CC4)ncn3)cc2C#N)[C@H](F)C1` [Example 31, 2-((3R,4S)-4-(2-cyano-4-(6-(cyclopropanecarboxamido)pyrimidin-4-yl)phenoxy)-3-fluoropiperidin-1-yl)-1-methylpyridin-1-ium 2,2,2-trifluoroacetate], for which the IC50 against TBK1 and on IKKε was above 1000 nM each time.

Regarding `N#Cc1cc(-c2ccnc(NC(=O)[C@@H]3C[C@H]3c3ccco3)c2)ccc1OC1CCOCC1` (relative stereo) [Example 150, Trans-N-(4-(3-cyano-4-((tetrahydro-2H-pyran-4-yl)oxy)phenyl)pyridin-2-yl)-2-(furan-2-yl)cyclopropane-1-carboxamide], the IC50 on TBK1 is 70.5 nM; on IKKε it was 636 nM.

On to `N#Cc1cc(-c2ccnc(NC(=O)C3(C#N)CC3)c2)ccc1O[C@H]1CCN(C(=O)CO)C[C@H]1F` [Example 63, 1-Cyano-N-(4-(3-cyano-4-(((3R,4S)-3-fluoro-1-(2-hydroxyacetyl)piperidin-4-yl)oxy)phenyl)pyridin-2-yl)cyclopropane-1-carboxamide], for which the half-inhibitory concentration (IC50) against TBK1 and on IKKε was above 1000 nM each time.

As for `N#Cc1cc(-c2ccnc(NC(=O)C3CC3)c2)ccc1O[C@H]1CCN(C(=O)[C@@H]2CCC(=O)N2)CC1(F)F` [Example 14, N-(4-(3-cyano-4-(((S)-3,3-difluoro-1-((S)-5-oxopyrrolidine-2-carbonyl)piperidin-4-yl)oxy)phenyl)pyridin-2-yl)cyclopropanecarboxamide], the IC50 on TBK1 was 5.5 nM; on IKKε it was 18.5 nM.

Regarding `COCC(=O)N1CC[C@H](Oc2ccc(-c3ccnc(NC(=O)[C@H]4C[C@@H]4F)c3)cc2C#N)[C@H](F)C1` [Example 68, (1,2-trans)-N-(4-(3-Cyano-4-(((3R,4S)-3-fluoro-1-(2-methoxyacetyl)piperidin-4-yl)oxy)phenyl)pyridin-2-yl)-2-fluorocyclopropane-1-carboxamide], the IC50 was found to be 34.2 nM at TBK1 and 87.8 nM on IKKε.

As for `N#Cc1cc(-c2cc(NC(=O)C3CC3)ncn2)ccc1F` [Example 105, N-(6-(3-cyano-4-fluorophenyl)pyrimidin-4-yl)cyclopropanecarboxamide], the IC50 on TBK1 and at IKKε was above 1000 nM each time.

Consider `N#Cc1cc(-c2cc(NC(=O)C3CC3)ncn2)ccc1OC1CCOCC1` [Example 6, N-(6-(3-cyano-4-((tetrahydro-2H-pyran-4-yl)oxy)phenyl)pyrimidin-4-yl)cyclopropanecarboxamide], for which the IC50 at TBK1 is 48.5 nM; on IKKε, 298 nM.

As for `Cn1cc([C@@H]2C[C@H]2C(=O)Nc2cc(-c3ccc(O[C@H]4CCN(C(=O)CO)CC4(F)F)c(C#N)c3)ccn2)cn1` [Example 121, (1R,2R)—N-(4-(3-cyano-4-(((S)-3,3-difluoro-1-(2-hydroxyacetyl)piperidin-4-yl)oxy)phenyl)pyridin-2-yl)-2-(1-methyl-1H-pyrazol-4-yl)cyclopropane-1-carboxamide], the IC50 amounted to 7.2 nM on TBK1 and 6.2 nM on IKKε.

For the compound `Cn1cc([C@@H]2C[C@H]2C(=O)Nc2cc(-c3ccc(O[C@H]4CCN(C(=O)CO)C[C@H]4F)c(C#N)c3)ccn2)cn1` (single isomer, unassigned) [Example 125], the figures for the IC50 against TBK1 and at IKKε were 18.9 nM and 31.4 nM, respectively.

Turning to `N#Cc1cc(-c2ccnc(NC(=O)C3C4CC3C4C(N)=O)c2)ccc1OC1CCOCC1` (stereo not shown) [Example 56, N-(4-(3-cyano-4-((tetrahydro-2H-pyran-4-yl)oxy)phenyl)pyridin-2-yl)bicyclo[1.1.1]pentane-2,4-dicarboxamide], the IC50 against TBK1 was above 1000 nM; on IKKε it was 444 nM.

As to `Cn1cc([C@@H]2C[C@H]2C(=O)Nc2cc(-c3ccc(O[C@H]4CCN(C(=O)[C@@H](O)CO)C[C@H]4F)c(C#N)c3)ccn2)cn1` [Example 130, (1,2-Trans)-N-(4-(3-cyano-4-(((3R,4S)-1-((S)-2,3-dihydroxypropanoyl)-3-fluoropiperidin-4-yl)oxy)phenyl)pyridin-2-yl)-2-(1-methyl-1H-pyrazol-4-yl)cyclopropane-1-carboxamide], the results for the IC50 against TBK1 and at IKKε were 6.1 nM and 15.6 nM, respectively.

As for `N#Cc1cc(-c2ccnc(NC(=O)[C@@H]3C[C@H]3c3cnco3)c2)ccc1OC1CCOCC1` (relative stereo) [Example 43, (1,2-trans)-N-(4-(3-cyano-4-((tetrahydro-2H-pyran-4-yl)oxy)phenyl)pyridin-2-yl)-2-(oxazol-5-yl)cyclopropane-1-carboxamide], the concentration for half-maximal inhibition (IC50) is 61.3 nM at TBK1 and 146 nM at IKKε.

On to `Cn1ccc([C@H]2C[C@@H]2C(=O)Nc2cc(-c3ccc(O[C@H]4CCN(C(=O)CO)CC4(F)F)c(C#N)c3)ccn2)n1` [Example 103, (1S,2S)—N-(4-(3-cyano-4-(((S)-3,3-difluoro-1-(2-hydroxyacetyl)piperidin-4-yl)oxy)phenyl)pyridin-2-yl)-2-(1-methyl-1H-pyrazol-3-yl)cyclopropane-1-carboxamide], for which the IC50 on TBK1 came out at 5.7 nM; on IKKε it was 14.3 nM.

Take `N#Cc1cc(-c2ccnc(NC(=O)[C@H]3[C@@H]4COC[C@@H]43)c2)ccc1OC1CCOCC1` [Example 118, (1R,5S,6R)—N-(4-(3-cyano-4-((tetrahydro-2H-pyran-4-yl)oxy)phenyl)pyridin-2-yl)-3-oxabicyclo[3.1.0]hexane-6-carboxamide]: the half-maximal inhibitory concentration (IC50) at TBK1 is 871 nM; at IKKε, 632 nM.

For the compound `N#Cc1cc(-c2cc(NC(=O)C3CC3)ncn2)ccc1O[C@H]1CCN(C=O)C[C@H]1F` [Example 29, N-(6-(3-cyano-4-(((3R,4S)-3-fluoro-1-formylpiperidin-4-yl)oxy)phenyl)pyrimidin-4-yl)cyclopropanecarboxamide], the IC50 on TBK1 turned out to be 46.6 nM; at IKKε, 128 nM.

Turning to `Cn1cc([C@@H]2C[C@H]2C(=O)Nc2cc(-c3ccc(O[C@H]4CCN(C(=O)CO)C[C@H]4F)c(C#N)c3)ccn2)cn1` [Example 90, (1,2-trans)-N-(4-(3-cyano-4-(((3R,4S)-3-fluoro-1-(2-hydroxyacetyl)piperidin-4-yl)oxy)phenyl)pyridin-2-yl)-2-(1-methyl-1H-pyrazol-4-yl)cyclopropane-1-carboxamide], the results for the IC50 on TBK1 and at IKKε were 5.6 nM and 9.5 nM, respectively.

As to `N#Cc1cc(-c2ccnc(NC(=O)[C@H]3C[C@@H]3c3cscn3)c2)ccc1OC1CCOCC1` (relative stereo) [Example 123, (1,2-Trans)-N-(4-(3-cyano-4-((tetrahydro-2H-pyran-4-yl)oxy)phenyl)pyridin-2-yl)-2-(thiazol-4-yl)cyclopropane-1-carboxamide], the values for the IC50 on TBK1 and on IKKε were 938 nM and above 1000 nM, respectively.
